Measurements from the supplement of paper PMC11061612.

What was measured:
AZD2811 = compound: CCN(CCO)CCCOc1ccc2c(Nc3cc(CC(=O)Nc4cccc(F)c4)[nH]n3)ncnc2c1 [AZD2811]; settings: max 1 µM
Outline: (§1)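 Cancer cell lines were seeded in 1536-well plates in 7.5 μl DMEM/F12 or RPMI with 10% FBS, held 24 hours at 37°C and 5% CO2, then dosed for 72 hours (final DMSO typically 0.2%). Viability was read by CellTiter-Glo 2.0 luminescence and scaled between blank-well and DMSO-well means. The single-agent IC50 comes from dose responses fitted to a two-parameter logistic curve with a non-linear mixed effects model.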

Etoposide = compound: COc1cc([C@@H]2c3cc4c(cc3[C@@H](O[C@@H]3O[C@@H]5CO[C@@H](C)O[C@H]5[C@H](O)[C@H]3O)[C@H]3COC(=O)[C@H]23)OCO4)cc(OC)c1O [Etoposide]; settings: max 10 µM
Outline: as §1

AZD8186 = compound: C[C@@H](Nc1cc(F)cc(F)c1)c1cc(C(=O)N(C)C)cc2c(=O)cc(N3CCOCC3)oc12 [AZD8186]; settings: max 10 µM
Outline: as §1

Selumetinib = compound: Cn1cnc2c(F)c(Nc3ccc(Br)cc3Cl)c(C(=O)NOCCO)cc21 [Selumetinib]; settings: max 10 µM
Outline: as §1

AZD0156 = compound: CN(C)CCCOc1ccc(-c2ccc3ncc4c(c3c2)n(C2CCOCC2)c(=O)n4C)cn1 [AZD0156]
Outline: as §1

Lapatinib = compound: CS(=O)(=O)CCNCc1ccc(-c2ccc3ncnc(Nc4ccc(OCc5cccc(F)c5)c(Cl)c4)c3c2)o1 [Lapatinib]; settings: max 10 µM
Outline: as §1

Trametinib = compound: CC(=O)Nc1cccc(-n2c(=O)n(C3CC3)c(=O)c3c(Nc4ccc(I)cc4F)n(C)c(=O)c(C)c32)c1 [Trametinib]; settings: max 1 µM
Outline: as §1

AZD6738 = compound: C[C@@H]1COCCN1C2=NC(=NC(=C2)C3(CC3)[S@](=N)(=O)C)C4=C5C=CNC5=NC=C4 [AZD6738]; settings: max 10 µM
Outline: as §1

AZD1775 = compound: C=CCn1c(=O)c2cnc(Nc3ccc(N4CCN(C)CC4)cc3)nc2n1-c1cccc(C(C)(C)O)n1 [AZD1775]
Outline: as §1

AZD5991 = compound: Cc1c2c(nn1C)CSCc1cc(n(C)n1)CSc1cc(c3ccccc3c1)OCCCc1c(C(=O)O)n(C)c3c-2c(Cl)ccc13 [AZD5991]; settings: max 1 µM
Outline: as §1

Crizotinib = compound: C[C@@H](Oc1cc(-c2cnn(C3CCNCC3)c2)cnc1N)c1c(Cl)ccc(F)c1Cl [Crizotinib]; settings: max 10 µM
Outline: as §1

AZD5153 = compound: COc1nnc2ccc(N3CCC(c4ccc(OCCN5CCN(C)C(=O)[C@H]5C)cc4)CC3)nn12 [AZD5153]; settings: max 1 µM
Outline: as §1

AZD5363 = compound: C1CN(CCC1(C(=O)N[C@@H](CCO)C2=CC=C(C=C2)Cl)N)C3=NC=NC4=C3C=CN4 [AZD5363]; settings: max 10 µM
Outline: as §1

Prexasertib = compound: COc1cccc(OCCCN)c1-c1cc(Nc2cnc(C#N)cn2)n[nH]1 [Prexasertib]; settings: max 1 µM
Outline: as §1

5-Fluorouracil = compound: O=c1[nH]cc(F)c(=O)[nH]1 [5-Fluorouracil]; settings: max 20 µM
Outline: as §1

Palbociclib = compound: CC(=O)c1c(C)c2cnc(Nc3ccc(N4CCNCC4)cn3)nc2n(C2CCCC2)c1=O [Palbociclib]; settings: max 10 µM
Outline: as §1

AZD7648 = compound: Cc1cc2ncnn2cc1Nc1ncc2c(n1)n(C1CCOCC1)c(=O)n2C [AZD7648]; settings: max 10 µM
Outline: as §1

Savolitinib = compound: C[C@@H](c1ccc2nccn2c1)n1nnc2ncc(-c3cnn(C)c3)nc21 [Savolitinib]; settings: max 1 µM
Outline: as §1

Taselisib = compound: Cc1nc(-c2cn3c(n2)-c2ccc(-c4cnn(C(C)(C)C(N)=O)c4)cc2OCC3)n(C(C)C)n1 [Taselisib]; settings: max 10 µM
Outline: as §1

AZD4320 = compound: CN(CC[C@H](CSC1=CC=CC=C1)NC2=C(C=C(C=C2)S(=O)(=O)NC(=O)C3=CC=C(C=C3)N4CCC(CC4)[C@H](C5=CC=CC=C5C6=CC=C(C=C6)Cl)O)S(=O)(=O)C(F)(F)F)CCO [AZD4320]; settings: max 1 µM
Outline: as §1

Carboplatin = compound: C1CC(C1)(C(=O)[O-])C(=O)[O-].N.N.[Pt+2] [Carboplatin]; settings: max 10 µM
Outline: as §1

Alisertib = compound: COc1cc(Nc2ncc3c(n2)-c2ccc(Cl)cc2C(c2c(F)cccc2OC)=NC3)ccc1C(=O)O [Alisertib]; settings: max 10 µM
Outline: as §1

Venetoclax = compound: CC1(C)CCC(CN2CCN(c3ccc(C(=O)NS(=O)(=O)c4ccc(NCC5CCOCC5)c([N+](=O)[O-])c4)c(Oc4cnc5[nH]ccc5c4)c3)CC2)=C(c2ccc(Cl)cc2)C1 [Venetoclax]; settings: max 1 µM
Outline: as §1

Dasatinib = compound: CC1=C(C(=CC=C1)Cl)NC(=O)C2=CN=C(S2)NC3=CC(=NC(=N3)C)N4CCN(CC4)CCO [Dasatinib]; settings: max 2 µM
Outline: as §1

Doxorubicin = compound: COc1cccc2c1C(=O)c1c(O)c3c(c(O)c1C2=O)C[C@@](O)(C(=O)CO)C[C@@H]3O[C@H]1C[C@H](N)[C@H](O)[C@H](C)O1 [Doxorubicin]; settings: max 1 µM
Outline: as §1

Olaparib = compound: O=C(c1cc(Cc2n[nH]c(=O)c3ccccc23)ccc1F)N1CCN(C(=O)C2CC2)CC1 [Olaparib]; settings: max 10 µM
Outline: as §1

SRA737 = compound: N#Cc1cnc(Nc2cc(NC[C@H]3CNCCO3)c(C(F)(F)F)cn2)cn1 [SRA737]; settings: max 10 µM
Outline: as §1

SG3199 = compound: CC1=CN2[C@@H](C1)C=NC3=CC(=C(C=C3C2=O)OC)OCCCCCOC4=C(C=C5C(=C4)N=C[C@@H]6CC(=CN6C5=O)C)OC [SG3199]; settings: max 0.001 µM
Outline: as §1

AZD1390 = compound: CC(C)n1c(=O)n(C)c2cnc3cc(F)c(-c4ccc(OCCCN5CCCCC5)nc4)cc3c21 [AZD1390]; settings: max 0.3 µM
Outline: as §1

Gemcitabine = compound: Nc1ccn([C@@H]2O[C@H](CO)[C@@H](O)C2(F)F)c(=O)n1 [Gemcitabine]; settings: max 0.3 µM
Outline: as §1

[1] = compound: O=C(Nc1ccc2[nH]nc(-c3ccncc3)c2c1)[C@@H]1CCN(CC(=O)N2CCN(c3ccc(-c4ncccn4)cc3)CC2)C1; settings: max 5 µM
Outline: as §1

Paclitaxel = compound: CC(=O)O[C@H]1C(=O)[C@@]2(C)[C@H]([C@H](OC(=O)c3ccccc3)[C@]3(O)C[C@H](OC(=O)[C@H](O)[C@@H](NC(=O)c4ccccc4)c4ccccc4)C(C)=C1C3(C)C)[C@]1(OC(C)=O)CO[C@@H]1C[C@@H]2O [Paclitaxel]; settings: max 3 µM
Outline: as §1

Gefitinib = compound: COc1cc2ncnc(Nc3ccc(F)c(Cl)c3)c2cc1OCCCN1CCOCC1 [Gefitinib]; settings: max 10 µM
Outline: as §1

MK-2206 = compound: NC1(c2ccc(-c3nc4ccn5c(=O)[nH]nc5c4cc3-c3ccccc3)cc2)CCC1 [MK-2206]; settings: max 10 µM
Outline: as §1

SN-38 = compound: CCc1c2c(nc3ccc(O)cc13)-c1cc3c(c(=O)n1C2)COC(=O)[C@]3(O)CC [SN-38]; settings: max 0.3 µM
Outline: as §1

| Cell Line | IC50, cell viability 72 h (AZD2811) | IC50, cell viability 72 h (Etoposide) | IC50, cell viability 72 h (AZD8186) | IC50, cell viability 72 h (Selumetinib) | IC50, cell viability 72 h (AZD0156; max 3 µM) | IC50, cell viability 72 h (Lapatinib) | IC50, cell viability 72 h (Trametinib) | IC50, cell viability 72 h (AZD6738) | IC50, cell viability 72 h (AZD1775; max 3 µM) | IC50, cell viability 72 h (AZD5991) | IC50, cell viability 72 h (Crizotinib) | IC50, cell viability 72 h (AZD5153) | IC50, cell viability 72 h (AZD5363) | IC50, cell viability 72 h (Prexasertib) | IC50, cell viability 72 h (5-Fluorouracil) | IC50, cell viability 72 h (Palbociclib) | IC50, cell viability 72 h (AZD7648) | IC50, cell viability 72 h (Savolitinib) | IC50, cell viability 72 h (Taselisib) | IC50, cell viability 72 h (AZD4320) | IC50, cell viability 72 h (Carboplatin) | IC50, cell viability 72 h (Alisertib) | IC50, cell viability 72 h (Venetoclax) | IC50, cell viability 72 h (Dasatinib) | IC50, cell viability 72 h (Doxorubicin) | IC50, cell viability 72 h (Olaparib) | IC50, cell viability 72 h (SRA737) | IC50, cell viability 72 h (SG3199) | IC50, cell viability 72 h (AZD1390) | IC50, cell viability 72 h (Gemcitabine) | IC50, cell viability 72 h [1] | IC50, cell viability 72 h (Paclitaxel) | IC50, cell viability 72 h (Gefitinib) | IC50, cell viability 72 h (MK-2206) | IC50, cell viability 72 h (SN-38) | IC50, cell viability 72 h (AZD0156; max 1 µM) | IC50, cell viability 72 h (AZD1775; max 1 µM) |
| --- | --- | --- | --- | --- | --- | --- | --- | --- | --- | --- | --- | --- | --- | --- | --- | --- | --- | --- | --- | --- | --- | --- | --- | --- | --- | --- | --- | --- | --- | --- | --- | --- | --- | --- | --- | --- | --- |
| Hs-633T (Other Solid Carcinomas) | > 1000 nM | 5.07 µM | > 10 µM | > 10 µM | > 3000 nM | > 10 µM | 656 nM | 3.3 µM | 472 nM | > 1000 nM | 7 µM | 570 nM | > 10 µM | 81.4 nM | > 20 µM | > 10 µM | > 10 µM | > 1000 nM | 7.46 µM | > 1000 nM | > 10 µM | 9.06 µM | > 1000 nM | 334 nM | 380 nM | > 10 µM | > 10 µM | > 1 nM | > 300 nM | 14.5 nM | 3.36 µM | 30.4 nM | > 10 µM | > 10 µM | 38.2 nM | – | – |
| MDA-MB-468 (Breast Carcinoma) | > 1000 nM | > 10 µM | 9.07 µM | > 10 µM | > 3000 nM | 9.24 µM | 415 nM | 6.88 µM | 1790 nM | > 1000 nM | > 10 µM | > 1000 nM | > 10 µM | 618 nM | > 20 µM | > 10 µM | > 10 µM | – | > 10 µM | 670 nM | > 10 µM | 1.52 µM | > 1000 nM | > 2000 nM | > 1000 nM | > 10 µM | > 10 µM | > 1 nM | > 300 nM | 263 nM | > 5 µM | 111 nM | – | 9.17 µM | 40 nM | – | – |
| RH-18 (Rhabdomyosarcoma) | > 1000 nM | – | – | – | – | – | – | > 10 µM | – | – | – | – | – | > 1000 nM | – | – | > 10 µM | – | – | – | – | – | – | – | 909 nM | > 10 µM | – | > 1 nM | – | – | – | – | – | – | > 300 nM | > 1000 nM | > 1000 nM |
